According to paper PMC10963751, “Solar-driven sugar production directly from CO2 via a customizable electrocatalytic–biocatalytic flow system” (Nature Communications, 2024):

Target: T1, BmfaldDH (Burkholderia multivorans, UniProt A0A0H3KP42)
T1 construct: gene fdhA2; pET28a, E. coli BL21(DE3), Ni-NTA purified (His-tagged)
T1 sequence (A0A0H3KP42 1-398): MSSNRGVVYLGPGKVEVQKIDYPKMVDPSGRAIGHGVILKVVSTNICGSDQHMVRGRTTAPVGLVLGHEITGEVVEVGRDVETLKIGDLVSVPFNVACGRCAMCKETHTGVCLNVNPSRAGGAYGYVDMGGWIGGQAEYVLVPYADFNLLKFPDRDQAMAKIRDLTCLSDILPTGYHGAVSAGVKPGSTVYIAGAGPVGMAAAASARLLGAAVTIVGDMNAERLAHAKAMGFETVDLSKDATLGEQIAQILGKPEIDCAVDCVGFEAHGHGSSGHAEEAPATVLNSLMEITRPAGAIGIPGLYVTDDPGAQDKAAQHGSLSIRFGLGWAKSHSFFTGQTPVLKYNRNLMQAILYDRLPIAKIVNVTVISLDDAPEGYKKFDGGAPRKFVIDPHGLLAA
Assay: isothermal titration calorimetry
Assay type: binding

| SMILES | thermodynamic data |
| --- | --- |
| NC(=O)C1=CN([C@@H]2O[C@H](COP(=O)(O)OP(=O)(O)OC[C@H]3O[C@@H](n4cnc5c(N)ncnc54)[C@H](O)[C@@H]3O)[C@@H](O)[C@H]2O)C=CC1 [NADH] | evaluating the interaction of BmfaldDH with formate and NADH |
| O=CO [formate] | isothermal titration calorimetry (ITC) to measure the thermodynamic data |
